Data taken from PubChem BioAssay (NCI).
Several values for one entry are separate records, joined by “and”; a condition that tells them apart may be missing. Equal entries are not always repeated.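 Exposure lasted 48 hours, with cells grown in 96-well plates and compounds tested at five concentrations. GI50 = concentration required for 50% inhibition of growth. TGI: total growth inhibition.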

Key:
Test in all cases: DTP human tumour cell line panel, 48 h
[1] = system: ACHN renal
[2] = system: HCT-15 colon
[3] = system: HOP-62 NSCLC
[4] = system: LOX IMVI melanoma
[5] = system: MDA-MB-231 breast
[6] = system: MDA-N
[7] = system: NCI-H460 lung
[8] = system: SNB-75 CNS
[9] = system: CAKI-1 renal
[10] = system: LXFL 529 NSCLC

SMILES	TGI [1]	TGI [2]	TGI [3]	TGI [4]	TGI [5]	TGI [6] [µM]	TGI [7]	TGI [8]	GI50 [1]	GI50 [9]	TGI [9]	GI50 [2]	GI50 [3]	GI50 [4]	GI50 [5]	GI50 [6] [µM]	GI50 [7]	GI50 [8]	TGI [10] [µM]
COc1ccc(-c2cc(=O)c3c(O)cc(C)cc3o2)cc1OC	> 100 µM	> 100 µM	> 100 µM	> 100 µM	> 100 µM	> 100	> 100 µM	> 100 µM	–	–	–	–	–	–	–	–	–	–	–
C[C@H]1C(Oc2ccc(O)cc2)OC2OC3(C)CCC4[C@H](C)CCC1C24OO3 (some centres undefined)	19 µM	23.8 µM	51.5 µM	30.6 µM	30.9 µM	26.4	30.5 µM	39.3 µM	3.97 µM	18.5 µM	40.8 µM	2.36 µM	21.8 µM	11.5 µM	15.8 µM	11.1	15.1 µM	17.6 µM	–
NC(=O)/C=C/NC(=O)/C=N\O	> 100 µM	> 100 µM	> 100 µM	> 100 µM	> 100 µM	> 100	> 100 µM	> 100 µM	–	–	> 100 µM	–	–	–	–	–	–	–	–
CCCCCC/C=C\CCCCCCCCCC1=CC(=O)C=C(OC)C1=O	11.6 µM	11.1 µM	14.8 µM	13.9 µM	18.4 µM	21.8	11.1 µM	8.07 µM	–	–	9.65 µM	–	–	–	–	–	–	–	–
CCc1nc(N)nc(N)c1-c1ccc(NCCc2ccccc2)c([N+](=O)[O-])c1	37 µM	> 57.5 µM	> 46.9 µM	> 100 µM	> 88.9 µM	> 57.5	> 53.9 µM	47.3 µM	–	–	> 71.3 µM	–	–	–	–	–	–	–	–
CNC1C(O)C(OC2C(N)CC(N)C(OC3OC(C(C)O)C(O)C(O)C3N)C2O)OCC1(C)O (centres undefined)	> 100 µM	> 100 µM	> 100 µM	> 100 µM	> 100 µM	> 100	> 100 µM	> 100 µM	–	–	> 100 µM	–	–	–	–	–	–	–	–
CC/C(C)=C1\OC(=O)C(C)C(O)C(Cc2cccnc2)NC(=O)C(NC(=O)c2ncccc2O)C(C)OC1=O (centres undefined)	> 100 µM	> 100 µM	> 100 µM	> 100 µM	> 100 µM	> 100	> 100 µM	> 100 µM	–	–	> 100 µM	–	–	–	–	–	–	–	–
COc1cc(-c2cc(=O)c3cc(C)c(C)c(C(=O)O)c3o2)cc(OC)c1OC	> 100 µM	> 100 µM	> 100 µM	> 100 µM	–	–	> 100 µM	55.9 µM	–	–	–	–	–	–	–	–	–	–	> 100
COc1cc2nc3cc([N+](=O)[O-])ccc3c(NCCCNCC(C)(C)O)c2cc1OC	6.07 µM	8.29 µM	0.708 µM	0.485 µM	0.9 µM	–	1.04 µM	1.61 µM	0.576 µM	1.95 µM	10.2 µM	1.3 µM	0.169 µM	0.208 µM	0.222 µM	–	0.299 µM	0.3 µM	–
COc1cccc2[nH]c(-c3ccccn3)nc12	> 100 µM	> 100 µM	> 100 µM	> 100 µM	> 100 µM	> 100	> 100 µM	> 100 µM	–	–	> 100 µM	–	–	–	–	–	–	–	–
O=C(OCc1ccc2c(Cl)cc(Cl)c(O)c2n1)c1cc2ccccc2[nH]1	0.519 µM	0.517 µM	3.81 µM	0.332 µM	1.52 µM	–	3.52 µM	1.97 µM	0.219 µM	0.435 µM	1.65 µM	0.217 µM	1.63 µM	0.17 µM	0.422 µM	–	1.66 µM	0.583 µM	–
Nc1c(C(=O)Nc2ccccc2F)sc2nc3c(cc12)C(=O)CCC3	> 100 µM	> 100 µM	> 100 µM	> 100 µM	> 100 µM	–	> 63.1 µM	> 57.8 µM	> 21.5 µM	1.76 µM	> 100 µM	0.642 µM	4.12 µM	8.58 µM	7.53 µM	–	0.541 µM	1.88 µM	–
CCc1nc(Cl)nc(Cl)c1Cl	1.5 µM	1.88 µM	21.2 µM	0.394 µM	13.1 µM	15.2	28.5 µM	18.3 µM	–	–	1.15 µM	–	–	–	–	–	–	–	–
Cc1c(NC(=O)OC[C@@H]2COCCN2)cn2ncnc(Nc3ccc4c(cnn4Cc4cccc(F)c4)c3)c12	> 10 µM and 15.3 µM	> 10 µM and 21.4 µM	> 10 µM and 24.9 µM	> 10 µM and 19.4 µM	> 10 µM and 13.4 µM	–	> 10 µM and 24 µM	> 10 µM and 30.9 µM	0.576 µM and 0.44 µM	> 10 µM and 1.36 µM	> 10 µM and 15.5 µM	5.81 µM and 6.14 µM	> 10 µM and 11.5 µM	5.8 µM and 5.39 µM	4.89 µM and 2.99 µM	–	> 10 µM and 6.57 µM	8 µM and 7.09 µM	–
O=C(c1ccccc1)c1nc2ccc(C(F)(F)F)cc2[n+]([O-])c1C(F)(F)F	> 100 µM	> 100 µM	> 100 µM	> 100 µM	> 100 µM	–	> 100 µM	> 100 µM	39.3 µM	30.4 µM	> 100 µM	35.1 µM	59.6 µM	33.6 µM	45.1 µM	–	23.5 µM	37.1 µM	–
CCCCCCCCCCCCN(O)C(=O)c1ccccc1	> 100 µM	> 100 µM	–	> 100 µM	–	–	–	82.7 µM	–	–	–	–	–	–	–	–	–	–	> 100
O=C(CCCCCCSc1nc(-c2ccc(Cl)cc2)cc(-c2ccc(Cl)cc2)n1)NO	3.59 µM	> 50 µM	6.47 µM	3.75 µM	13.3 µM	–	5.93 µM	15.6 µM	1.21 µM	1.34 µM	4.76 µM	1.76 µM	1.52 µM	1.28 µM	2.15 µM	–	1.41 µM	1.32 µM	–
O=C1C2c3[nH]c4ccccc4c3[C@@H]3CCCCC3C2C(=O)N1c1ccccc1 (some centres undefined)	81.9 µM	> 100 µM	–	29.8 µM	–	–	31.9 µM	71.5 µM	–	–	–	–	–	–	–	–	–	–	39.6
O=C(Oc1ccccc1Cl)c1ccccc1Nc1ccnc(C(F)(F)F)c1	0.808 µM	0.538 µM	7.86 µM	0.0864 µM	0.502 µM	–	> 26.2 µM	27 µM	0.281 µM	0.599 µM	1.76 µM	0.219 µM	2.69 µM	0.0261 µM	0.202 µM	–	0.422 µM	0.676 µM	–
